Source: patent publication US20090170899A1, “Stimulators of 5-HT4 receptors and uses thereof” (priority 2004, published 2009)
Read-outs that look alike come from different tables or passages of the source.

Assays:
[1] = test system: BrdU-positive cells in the sub-granular zone (SGZ) of the hippocampus; conditions: cited from earlier work
DRN 5-HT neurons [2] = assay: Reversal by acute prucalopride of the inhibition of DRN 5-HT neuron firing rate induced by i.v. SSRIs; format: in vivo, rat; conditions: acute intravenous administration
Excerpt: FIGS. 6A and 6B illustrate the effect of prucalopride on the inhibition of 5-HT neuronal firing rate induced by SSRIs fluxoamine and citalopram.
In FIGS. 6A and 6B, the firing activity of the 5-HT neuron is suppressed following the acute intravenous administration of the antidepressant SSRIs fluvoxamine and citalopram. This suppression of the firing activity is due to the activation of the 5-HT1A autoreceptors, subsequent to the increase of the concentration of endogenous 5-HT, following the blockade of the 5-HT reuptake sites.

DRN 5-HT neurons [3] = conditions: cited from earlier work

## CNCCC(Oc1ccc(C(F)(F)F)cc1)c1ccccc1 (stereo not drawn) [fluoxetine]
[1]; 14-day treatment, Malberg et al., 2000
  increase of hippocampal neurogenesis: +35%
[1]; Santarelli et al., 2003
  quickest effect reported on hippocampal neurogenesis: 11 days
[1]; at 5 days, Santarelli et al., 2003
  activity on hippocampal neurogenesis: inactive

## COCCCC/C(=N\OCCN)c1ccc(C(F)(F)F)cc1 [fluvoxamine]
DRN 5-HT neurons [2]
  firing activity of the 5-HT neuron after SSRI: suppressed

## CN1CCN2c3ncccc3Cc3ccccc3C2C1 (stereo not drawn) [mirtazapine]
DRN 5-HT neurons [3]; acute conditions, Haddjeri et al., 1996
  effect on 5-HT neuron firing rate: increases
DRN 5-HT neurons [3]; after a 2-day treatment, Besson et al., 2000
  effect on 5-HT neuron firing rate: no longer present
